Measurements: PMC9150102 (Journal of Medicinal Chemistry, 2022)

Assays:
STZ diabetic rats = experiment: Echocardiography (hemodynamics) in STZ diabetic rats during i.v. infusion; format: in vivo, rat
Experimental: Drug effects reached a plateau at 15 min of infusion; 10 min after discontinuation of the infusion, most echo indexes affected by the compound returned to the basal level.
Echocardiographic parameters were measured before (basal) and at 15 and 30 min during drug infusion and 10 min after drug interruption under urethane anesthesia. Data are the mean ± SEM; all the results of echocardiographic indexes are summarized in Table S2; N = 13; *p < 0.05 (one-way RM ANOVA).
Diabetes was induced in Sprague Dawley male rats (150–175 g) by a single i.v. STZ group (50 mg/kg in citrate buffer) injection in the tail vein. Control (healthy group) rats received vehicle (citrate buffer).
Rats were studied by transthoracic echocardiographic under anesthesia (1.25 g/kg urethane, i.p). Left-ventricular end-diastolic (LVEDD) and end-systolic (LVESD) diameter, posterior wall (PWT), and interventricular septal thickness (IVST) were measured according to the American Society of Echocardiography guidelines.[16] FS was calculated as FS = (LVEDD – LVESD)/LVEDD. Trans-mitral flow velocity was measured (pulsed Doppler) to obtain early and late filling velocities (E and A waves) and E wave deceleration time (DT). […]
Hemodynamic studies in rats with diabetic cardiomyopathy
Control (healthy group) rats received STZ vehicle (citrate buffer). […]
were considered diabetic9.
Two-dimensionally guided M-mode recordings were […]
the American Society of Echocardiography guidelines13. Fractional shortening was calculated as FS = […]
E wave deceleration time (DT). […]
jugular vein for drug infusion in rats. Rats were randomly submitted to an echocardiographic study […]
intravenous infusion at the dose of 0.2 mg/kg/min. Echo parameters were measured at 15 and 30 min after infusion start and 10 min after drug interruption under urethane anesthesia. Data are mean ± SEM. *p<0.05 vs basal (one-way ANOVA for repeated measurements). […]
basal after 15 min after 30 min after 10 min

[1] = tested on: Na^+/K^+ ATPase current (INaK); experiment: Na+/K+ ATPase current (INaK) in isolated rat LV myocytes; format: cell-based; details: isolated rat cardiomyocytes
[2] = i.v. infusion 0.2 mg/kg/min, after 15 min
[3] = i.v. infusion 0.2 mg/kg/min, after 30 min

Question: With C[C@]12CC[C@H](CCCC(=O)O)C[C@@H]1[C@@H](O)C[C@@H]1[C@@H]2CC[C@]2(C)C(=O)CC[C@@H]12 [Compound 5] as the molecule, how does the CO (STZ diabetic rats; 10 min after drug interruption) read?
Answer: 153,2±10,67 ml/min

Question: And the DT (STZ diabetic rats; 10 min after drug interruption)?
Answer: 52,4±4,36 ms

Question: What about the DT/E (STZ diabetic rats; 10 min after drug interruption) of the same molecule?
Answer: 68,2±6,13 s2/mm

Question: What about the E/A (STZ diabetic rats; 10 min after drug interruption) of the same molecule?
Answer: 1,37±0,06

Question: What about the E/DT (STZ diabetic rats; 10 min after drug interruption) of the same molecule?
Answer: 16,5±1,78 m/s2

Question: What about the “E/e'” value (STZ diabetic rats; 10 min after drug interruption) of the same molecule?
Answer: 40,22±0,82

Question: What about the EF (STZ diabetic rats; 10 min after drug interruption) of the same molecule?
Answer: 92,66±1,05%

Question: And the FS (STZ diabetic rats; 10 min after drug interruption)?
Answer: 61,3±2,05%

Question: What about the HR (STZ diabetic rats; 10 min after drug interruption) of the same molecule?
Answer: 228±10 bpm

Question: And the IVSTd (STZ diabetic rats; 10 min after drug interruption)?
Answer: 1,68 ± 0,07 mm

Question: And the IVSTs (STZ diabetic rats; 10 min after drug interruption)?
Answer: 2,55 ± 0,10 mm

Question: And the LVEDD (STZ diabetic rats; 10 min after drug interruption)?
Answer: 6,84 ± 0,17 mm

Question: What about the LVESD (STZ diabetic rats; 10 min after drug interruption) of the same molecule?
Answer: 2,64 ± 0,17 mm

Question: And the PWTd (STZ diabetic rats; 10 min after drug interruption)?
Answer: 1,17 ± 0,07 mm

Question: What about the PWTs (STZ diabetic rats; 10 min after drug interruption) of the same molecule?
Answer: 2,42 ± 0,10 mm

Question: And the SV (STZ diabetic rats; 10 min after drug interruption)?
Answer: 0,68±0,05 ml

Question: What about the “a'” value (STZ diabetic rats; 10 min after drug interruption) of the same molecule?
Answer: 26,22±1,31 mm/s

Question: What about the “e'” value (STZ diabetic rats; 10 min after drug interruption) of the same molecule?
Answer: 19,4±0,60 mm/s

Question: What about the “e'/a'” value (STZ diabetic rats; 10 min after drug interruption) of the same molecule?
Answer: 0,76±0,047

Question: What about the “s'” value (STZ diabetic rats; 10 min after drug interruption) of the same molecule?
Answer: 20,6±0,53 mm/s

Question: And the CO (STZ diabetic rats; [2])?
Answer: 177,2±11,27 ml/min

Question: What about the DT (STZ diabetic rats; [2]) of the same molecule?
Answer: 42,46±2,83 ms

Question: What about the DT/E (STZ diabetic rats; [2]) of the same molecule?
Answer: 49,52±3,44 s2/mm

Question: And the E/A (STZ diabetic rats; [2])?
Answer: 1,36±0,05

Question: What about the E/DT (STZ diabetic rats; [2]) of the same molecule?
Answer: 21,49±1,61 m/s2

Question: What about the “E/e'” value (STZ diabetic rats; [2]) of the same molecule?
Answer: 37,49±1,2

Question: And the EF (STZ diabetic rats; [2])?
Answer: 90,68±1,4%

Question: What about the FS (STZ diabetic rats; [2]) of the same molecule?
Answer: 58,1±2,38%

Question: What about the HR (STZ diabetic rats; [2]) of the same molecule?
Answer: 268±15 bpm

Question: What about the IVSTd (STZ diabetic rats; [2]) of the same molecule?
Answer: 1,81±0,08 mm

Question: And the IVSTs (STZ diabetic rats; [2])?
Answer: 2,34±0,10 mm

Question: And the LVEDD (STZ diabetic rats; [2])?
Answer: 6,86±0,17 mm

Question: What about the LVESD (STZ diabetic rats; [2]) of the same molecule?
Answer: 2,87±0,18 mm

Question: And the PWTd (STZ diabetic rats; [2])?
Answer: 1,16±0,07 mm

Question: And the PWTs (STZ diabetic rats; [2])?
Answer: 2,59±0,09 mm

Question: And the SV (STZ diabetic rats; [2])?
Answer: 0,68±0,05 ml

Question: And the “a'” value (STZ diabetic rats; [2])?
Answer: 29,13±1,82 mm/s

Question: And the “e'” value (STZ diabetic rats; [2])?
Answer: 23,33±0,73 mm/s

Question: And the “e'/a'” value (STZ diabetic rats; [2])?
Answer: 0,84±0,07

Question: And the “s'” value (STZ diabetic rats; [2])?
Answer: 22,4±0,86 mm/s

Question: And the CO (STZ diabetic rats; [3])?
Answer: 175,15±9,4 ml/min

Question: What about the DT (STZ diabetic rats; [3]) of the same molecule?
Answer: 42,15±2,74 ms

Question: What about the DT/E (STZ diabetic rats; [3]) of the same molecule?
Answer: 48,51±4,56 s2/mm

Question: What about the E/A (STZ diabetic rats; [3]) of the same molecule?
Answer: 1,34±0,06

Question: What about the E/DT (STZ diabetic rats; [3]) of the same molecule?
Answer: 23,18±2,32 m/s2

Question: And the “E/e'” value (STZ diabetic rats; [3])?
Answer: 37,45±1,24

Question: And the EF (STZ diabetic rats; [3])?
Answer: 92,19±1,18%

Question: And the FS (STZ diabetic rats; [3])?
Answer: 60,7±2,31%

Question: And the HR (STZ diabetic rats; [3])?
Answer: 252±14 bpm

Question: What about the IVSTd (STZ diabetic rats; [3]) of the same molecule?
Answer: 1,71±0,1 mm

Question: And the IVSTs (STZ diabetic rats; [3])?
Answer: 2,55±0,13 mm

Question: What about the LVEDD (STZ diabetic rats; [3]) of the same molecule?
Answer: 6,94±0,15 mm

Question: And the LVESD (STZ diabetic rats; [3])?
Answer: 2,73±0,18 mm

Question: What about the PWTd (STZ diabetic rats; [3]) of the same molecule?
Answer: 1,22±0,07 mm

Question: And the PWTs (STZ diabetic rats; [3])?
Answer: 2,53±0,10 mm

Question: What about the SV (STZ diabetic rats; [3]) of the same molecule?
Answer: 0,71±0,04 ml

Question: What about the “a'” value (STZ diabetic rats; [3]) of the same molecule?
Answer: 28,94±1,47 mm/s

Question: What about the “e'” value (STZ diabetic rats; [3]) of the same molecule?
Answer: 24,24±0,65 mm/s

Question: And the “e'/a'” value (STZ diabetic rats; [3])?
Answer: 0,86±0,05

Question: And the “s'” value (STZ diabetic rats; [3])?
Answer: 21,8±0,78 mm/s

Question: And the “systolic function” value (STZ diabetic rats; i.v. infusion at a single dose)?
Answer: did not affect systolic function significantly

Question: What about the “concentration above which INaK inhibition is detectable” value [1] of the same molecule?
Answer: higher than 20 μM
